Active and inactive are the calls of the source. The calls are words filed in the database; no cut-off is given here.

One assay deals with T1, Histidine decarboxylase (Rattus norvegicus) (UniProt P16453).
T1 sequence (whole entry): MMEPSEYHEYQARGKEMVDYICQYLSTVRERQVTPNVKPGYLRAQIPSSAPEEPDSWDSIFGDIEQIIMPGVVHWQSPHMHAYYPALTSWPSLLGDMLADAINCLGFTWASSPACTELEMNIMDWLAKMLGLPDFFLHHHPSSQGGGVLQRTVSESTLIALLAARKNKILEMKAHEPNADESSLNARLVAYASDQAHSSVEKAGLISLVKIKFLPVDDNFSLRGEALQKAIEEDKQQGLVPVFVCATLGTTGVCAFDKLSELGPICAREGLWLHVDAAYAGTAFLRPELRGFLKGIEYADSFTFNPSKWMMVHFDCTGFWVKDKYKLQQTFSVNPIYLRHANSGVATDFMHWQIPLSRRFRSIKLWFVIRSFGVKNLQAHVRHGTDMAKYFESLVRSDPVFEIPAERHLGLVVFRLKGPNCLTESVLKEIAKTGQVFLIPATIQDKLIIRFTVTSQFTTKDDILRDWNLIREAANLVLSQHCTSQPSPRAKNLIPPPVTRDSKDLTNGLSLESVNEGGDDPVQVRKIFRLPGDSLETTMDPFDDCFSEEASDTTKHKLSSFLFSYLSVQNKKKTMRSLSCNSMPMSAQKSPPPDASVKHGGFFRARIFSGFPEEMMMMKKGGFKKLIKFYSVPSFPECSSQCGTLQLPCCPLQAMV
Put plainly: Inhibition of histidine decarboxylase in rat pyloric stomach using [carboxyl-14C]-histidine as substrate at 10^-3 M by 14CO2 trapping assay relative to control. The format is tissue-based.
A word on the inhibition: it is the share of the control response that was lost under treatment. On to `CCCC[C@](N)(Cc1c[nH]cn1)C(=O)O`, for which the inhibition is 0%. The molecule `NC(CCc1c[nH]cn1)C(=O)O` (configuration not stated) showed an inhibition of 0%. For `CC(C)[C@](N)(Cc1c[nH]cn1)C(=O)O`, the inhibition was found to be 1%. `CC[C@](N)(Cc1c[nH]cn1)C(=O)O` registered an inhibition of 14%. On to `C[C@](N)(Cc1c[nH]cn1)C(=O)O`, for which the inhibition turned out to be 40%.

With `CC(C)(c1c[nH]cn1)[C@H](N)C(=O)O`, the inhibition is 0%. Turning to `N[C@@]1(Cc2c[nH]cn2)CCOC1=O`, the inhibition came out at 19%.

The target of another assay is T1, Histidine decarboxylase (Rattus norvegicus). Kind of assay: Inhibition of histidine decarboxylase in rat pyloric stomach using [carboxyl-14C]-histidine as substrate at 10^-4 M by 14CO2 trapping assay relative to control. The format is tissue-based.
Regarding `CC(C)[C@](N)(Cc1c[nH]cn1)C(=O)O`, the inhibition is 0%. Still for that read-out and setting: with `CC[C@](N)(Cc1c[nH]cn1)C(=O)O` the figure was 6%; with `C[C@](N)(Cc1c[nH]cn1)C(=O)O`, 30%; with `CC(c1c[nH]cn1)[C@H](N)C(=O)O` (some centres not stated), “inactive”. As for `N[C@@]1(Cc2c[nH]cn2)CCOC1=O`, the inhibition was determined as 12%.
